Measurements from ChEMBL document CHEMBL1150759, “[Cytotoxic and antibacterial substances from the ascidian Aplidium antillense]” (J Nat Prod, 1988).
≈ marks a conversion by molar mass, not a printed value.

Experiments:
Staphylococcus aureus [1] = test: Antimicrobial activity against methicillin-resistant Staphylococcus aureus; format: functional
KB = test: Cytotoxicity against human KB cells; format: functional, cell-based
Serratia marcescens = test: Antimicrobial activity against Serratia marcescens; format: functional
Morganella morganii = test: Antimicrobial activity against Morganella morganii; format: functional
Escherichia coli = test: Antimicrobial activity against Escherichia coli; format: functional
P388 = test: Cytotoxicity against mouse P388 cells; format: functional, cell-based
Enterococcus faecalis = test: Antimicrobial activity against Streptococcus faecalis; format: functional
Klebsiella pneumoniae = test: Antimicrobial activity against Klebsiella pneumoniae; format: functional
Staphylococcus aureus [2] = test: Antimicrobial activity against methicillin-sensitive Staphylococcus aureus; format: functional
Pseudomonas aeruginosa = test: Antimicrobial activity against Pseudomonas aeruginosa; format: functional
Proteus mirabilis = test: Antimicrobial activity against Proteus mirabilis; format: functional

Row | Compound | MBC/MIC ratio (Staphylococcus aureus [1]) | MIC (Staphylococcus aureus [1]) | IC50 (KB) | MIC (Serratia marcescens) | MIC (Morganella morganii) | MIC (Escherichia coli) | IC50 (P388) | MBC/MIC ratio (Enterococcus faecalis) | MIC (Enterococcus faecalis) | MIC (Klebsiella pneumoniae) | MBC/MIC ratio (Staphylococcus aureus [2]) | MIC (Staphylococcus aureus [2]) | MIC (Pseudomonas aeruginosa) | MIC (Proteus mirabilis)
1 | CC(C)=CCCC1(C)C=Cc2cc(O)ccc2O1 (stereo not drawn) [CORDIACHROMENE A] | 2 | 64 µg/mL (≈ 262 µM) | 36 µg/mL (≈ 147 µM) | > 256 µg/mL | > 256 µg/mL | > 256 µg/mL | 0.5 µg/mL (≈ 2.05 µM) | 1 | 64 µg/mL (≈ 262 µM) | > 256 µg/mL | 2 | 64 µg/mL (≈ 262 µM) | > 256 µg/mL | > 256 µg/mL
2 | CC(C)=CCC/C(C)=C/Cc1cc(O)ccc1O [GEROQUINOL] | 2 | 64 µg/mL (≈ 260 µM) | 4.3 µg/mL (≈ 17.5 µM) | 128 µg/mL (≈ 520 µM) | > 256 µg/mL | > 256 µg/mL | 0.034 µg/mL (≈ 0.138 µM) | 1 | 64 µg/mL (≈ 260 µM) | > 256 µg/mL | 2 | 64 µg/mL (≈ 260 µM) | > 256 µg/mL | > 256 µg/mL
